Measured values: paper PMC11062922 (Nature Chemical Biology, 2023)
Read-outs that look alike come from different tables or passages of the source.

Tests used:
CSNK1G1 = assay: Kinobeads competition binding: CSNK1G1; set-up: species or system human; conditions: target CSNK1G1;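 note: share of total target engagement due to this protein at one drug concentration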
NUAK2 = molecular target: T1, NUAK2 (Homo sapiens, UniProt Q9H093); assay: Kinobeads competition binding: NUAK2; conditions: target NUAK2
T1 construct: a mixture of lysates from five cancer cell lines; endogenous in cells
T1 sequence (Q9H093 1-628): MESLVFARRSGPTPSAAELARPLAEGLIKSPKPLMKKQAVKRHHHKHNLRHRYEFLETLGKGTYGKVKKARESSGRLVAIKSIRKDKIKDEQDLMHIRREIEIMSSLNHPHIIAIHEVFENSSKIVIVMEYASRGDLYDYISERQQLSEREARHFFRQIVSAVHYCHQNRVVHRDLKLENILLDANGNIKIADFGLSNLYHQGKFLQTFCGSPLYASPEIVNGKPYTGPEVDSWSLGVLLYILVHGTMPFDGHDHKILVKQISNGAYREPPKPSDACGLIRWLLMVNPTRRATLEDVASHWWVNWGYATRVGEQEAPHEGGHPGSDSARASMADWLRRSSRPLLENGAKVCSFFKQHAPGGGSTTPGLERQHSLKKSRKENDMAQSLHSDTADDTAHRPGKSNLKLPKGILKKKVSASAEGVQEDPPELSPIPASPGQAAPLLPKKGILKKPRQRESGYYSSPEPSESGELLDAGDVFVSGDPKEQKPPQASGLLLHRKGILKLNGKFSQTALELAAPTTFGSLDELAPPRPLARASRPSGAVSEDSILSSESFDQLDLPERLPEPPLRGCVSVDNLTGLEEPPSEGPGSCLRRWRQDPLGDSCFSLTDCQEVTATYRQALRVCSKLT
Description: Supplement 41589_2023_1459_MOESM4_ESM.xlsx, sheet "CATDS matrix" | column: NUAK2

PKN2 = molecular target: T2, PKN2 (Homo sapiens, UniProt Q16513); assay: Kinobeads competition binding: PKN2; conditions: target PKN2;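 note: share of total target engagement due to this protein at one drug concentration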
T2 construct: a mixture of lysates from five cancer cell lines; endogenous in cells
Description: Supplement 41589_2023_1459_MOESM4_ESM.xlsx, sheet "CATDS matrix" | column: PKN2

MELK = assay: Kinobeads competition binding: MELK; set-up: species or system human; conditions: target MELK;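 note: share of total target engagement due to this protein at one drug concentration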
AURKA = molecular target: T3, AURKA (Homo sapiens, UniProt O14965); assay: Kinobeads competition binding: AURKA; conditions: target AURKA;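 note: selectivity score: engagement of this protein divided by summed engagement of all targets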
T3 construct: endogenous in cells
T3 sequence (O14965 1-403): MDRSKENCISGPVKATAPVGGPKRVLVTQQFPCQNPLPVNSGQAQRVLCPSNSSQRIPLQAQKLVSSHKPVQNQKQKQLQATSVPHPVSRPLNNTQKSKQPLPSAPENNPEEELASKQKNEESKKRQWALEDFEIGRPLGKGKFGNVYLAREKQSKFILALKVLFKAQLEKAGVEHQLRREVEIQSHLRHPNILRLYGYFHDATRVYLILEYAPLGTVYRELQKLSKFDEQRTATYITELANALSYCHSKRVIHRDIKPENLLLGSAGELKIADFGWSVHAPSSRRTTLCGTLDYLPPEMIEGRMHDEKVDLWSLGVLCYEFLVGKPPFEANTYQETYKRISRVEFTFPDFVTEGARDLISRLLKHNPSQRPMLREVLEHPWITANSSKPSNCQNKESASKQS
Description: Supplement 41589_2023_1459_MOESM4_ESM.xlsx, sheet "CATDS matrix" | column: AURKA

AGK = assay: Kinobeads competition binding: AGK; set-up: species or system human; conditions: target AGK
DNAJA1 = assay: Kinobeads competition binding: DNAJA1; set-up: species or system human; conditions: target DNAJA1;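 note: share of total target engagement due to this protein at one drug concentration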
PIK3C2A = assay: Kinobeads competition binding: PIK3C2A; set-up: species or system human; conditions: target PIK3C2A;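 note: share of all-target engagement taken by this protein at its own Kdapp concentration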
CAMK2B = molecular target: T4, CAMK2B (Homo sapiens, UniProt Q13554); assay: Kinobeads competition binding: CAMK2B; conditions: target CAMK2B
T4 construct: endogenous in cells
Description: Supplement 41589_2023_1459_MOESM4_ESM.xlsx, sheet "CATDS matrix" | column: CAMK2B

EPHA7 = molecular target: T5, EPHA7 (Homo sapiens, UniProt Q15375); assay: Kinobeads competition binding: EPHA7; conditions: target EPHA7
T5 construct: endogenous in cells
Description: Supplement 41589_2023_1459_MOESM4_ESM.xlsx, sheet "CATDS matrix" | column: EPHA7

MST1R = assay: Kinobeads competition binding: MST1R; set-up: species or system human; conditions: target MST1R;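 note: selectivity score: engagement of this protein divided by summed engagement of all targets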
CDC42BPB = assay: Kinobeads competition binding: CDC42BPB; set-up: species or system human; conditions: target CDC42BPB
MAP2K5 = assay: Kinobeads competition binding: MAP2K5; set-up: species or system human; conditions: target MAP2K5
DCK = assay: Kinobeads competition binding: DCK; set-up: species or system human; conditions: target DCK;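 note: share of total target engagement due to this protein at one drug concentration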
MARK3 = assay: Kinobeads competition binding: MARK3; set-up: species or system human; conditions: target MARK3
MAP2K1 = assay: Kinobeads competition binding: MAP2K1; set-up: species or system human; conditions: target MAP2K1
MET = molecular target: T6, MET (Homo sapiens, UniProt P08581); assay: Kinobeads two-dose competition binding: MET; conditions: target MET
T6 construct: endogenous in cells

ILK = assay: Kinobeads competition binding: ILK; set-up: species or system human; conditions: target ILK
CSNK1A1 = assay: Kinobeads competition binding: CSNK1A1; set-up: species or system human; conditions: target CSNK1A1
PGK1 = assay: Kinobeads competition binding: PGK1; set-up: species or system human; conditions: target PGK1
MAPKAPK2 = molecular target: T7, MAPKAPK2 (Homo sapiens, UniProt P49137); assay: Kinobeads competition binding: MAPKAPK2; conditions: target MAPKAPK2
T7 construct: endogenous in cells

PKN3 = PKN3 (Homo sapiens, UniProt Q6P5Z2); assay: Kinobeads full dose-response competition binding: PKN3; set-up: endogenous in cells; conditions: for Relative Intensity 0.3nM: 0.3nM compound; for Relative Intensity 0.3nM / Relative Intensity 1nM / Relative Intensity 3nM / Relative Intensity 10nM / Relative Intensity 30nM / Relative Intensity 100nM / Relative Intensity 300nM / Relative Intensity 1000nM: DMSO = 1; for Relative Intensity 1nM: 1nM compound; for Relative Intensity 3nM: 3nM compound; for Relative Intensity 10nM: 10nM compound; for Relative Intensity 30nM: 30nM compound; for Relative Intensity 100nM: 100nM compound; for Relative Intensity 300nM: 300nM compound; for Relative Intensity 1000nM: 1000nM compound; for EC50: eight-dose curve fit;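 for all read-outs here: inhibitor pre-incubated 45 min at 4 °C in cell lysate (5 mg/ml protein), then competed against Kinobeads ε pulldown for 30 min, bound kinase quantified by nano LC–MS/MS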
[1] = Gene Name PKN3, EC50 with Correction, doses in nM, read-out: apparent Kd
[2] = Kinobeads full dose-response, read-out: Kdapp PKN3

T7 sequence (P49137 whole entry): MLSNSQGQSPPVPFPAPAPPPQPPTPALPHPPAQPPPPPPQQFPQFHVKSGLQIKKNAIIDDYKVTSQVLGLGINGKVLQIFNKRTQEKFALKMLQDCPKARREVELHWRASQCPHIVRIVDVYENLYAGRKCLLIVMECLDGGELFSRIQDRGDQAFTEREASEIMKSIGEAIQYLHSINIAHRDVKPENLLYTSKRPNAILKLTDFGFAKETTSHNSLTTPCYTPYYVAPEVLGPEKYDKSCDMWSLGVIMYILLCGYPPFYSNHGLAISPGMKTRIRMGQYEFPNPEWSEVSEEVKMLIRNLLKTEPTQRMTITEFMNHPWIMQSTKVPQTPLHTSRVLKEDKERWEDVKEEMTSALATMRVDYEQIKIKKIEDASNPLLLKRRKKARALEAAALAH
PKN3, sequence (Q6P5Z2 whole entry): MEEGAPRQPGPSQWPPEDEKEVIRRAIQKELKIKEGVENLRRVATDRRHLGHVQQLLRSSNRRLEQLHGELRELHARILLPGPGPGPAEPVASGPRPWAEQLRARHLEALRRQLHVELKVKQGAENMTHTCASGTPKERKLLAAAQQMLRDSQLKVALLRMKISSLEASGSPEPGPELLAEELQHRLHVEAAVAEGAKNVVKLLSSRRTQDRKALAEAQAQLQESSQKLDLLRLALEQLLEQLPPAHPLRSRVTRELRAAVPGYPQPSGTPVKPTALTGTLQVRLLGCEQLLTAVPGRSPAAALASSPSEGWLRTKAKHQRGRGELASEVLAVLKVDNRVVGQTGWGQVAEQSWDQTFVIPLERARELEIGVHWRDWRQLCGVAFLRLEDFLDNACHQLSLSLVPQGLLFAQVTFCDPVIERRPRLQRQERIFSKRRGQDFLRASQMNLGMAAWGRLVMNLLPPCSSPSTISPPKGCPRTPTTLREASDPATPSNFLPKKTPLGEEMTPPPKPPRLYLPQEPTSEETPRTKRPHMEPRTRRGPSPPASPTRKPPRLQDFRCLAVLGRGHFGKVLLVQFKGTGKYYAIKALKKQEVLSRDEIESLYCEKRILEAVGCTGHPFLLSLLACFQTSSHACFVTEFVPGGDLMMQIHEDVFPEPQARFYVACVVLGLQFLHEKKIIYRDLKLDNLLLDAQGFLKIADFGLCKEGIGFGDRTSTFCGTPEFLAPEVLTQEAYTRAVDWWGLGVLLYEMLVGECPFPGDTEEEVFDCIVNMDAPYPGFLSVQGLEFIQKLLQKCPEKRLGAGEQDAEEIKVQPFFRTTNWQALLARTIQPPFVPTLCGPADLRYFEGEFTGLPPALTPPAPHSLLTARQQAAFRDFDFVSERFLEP
T5 sequence (Q15375 28-998): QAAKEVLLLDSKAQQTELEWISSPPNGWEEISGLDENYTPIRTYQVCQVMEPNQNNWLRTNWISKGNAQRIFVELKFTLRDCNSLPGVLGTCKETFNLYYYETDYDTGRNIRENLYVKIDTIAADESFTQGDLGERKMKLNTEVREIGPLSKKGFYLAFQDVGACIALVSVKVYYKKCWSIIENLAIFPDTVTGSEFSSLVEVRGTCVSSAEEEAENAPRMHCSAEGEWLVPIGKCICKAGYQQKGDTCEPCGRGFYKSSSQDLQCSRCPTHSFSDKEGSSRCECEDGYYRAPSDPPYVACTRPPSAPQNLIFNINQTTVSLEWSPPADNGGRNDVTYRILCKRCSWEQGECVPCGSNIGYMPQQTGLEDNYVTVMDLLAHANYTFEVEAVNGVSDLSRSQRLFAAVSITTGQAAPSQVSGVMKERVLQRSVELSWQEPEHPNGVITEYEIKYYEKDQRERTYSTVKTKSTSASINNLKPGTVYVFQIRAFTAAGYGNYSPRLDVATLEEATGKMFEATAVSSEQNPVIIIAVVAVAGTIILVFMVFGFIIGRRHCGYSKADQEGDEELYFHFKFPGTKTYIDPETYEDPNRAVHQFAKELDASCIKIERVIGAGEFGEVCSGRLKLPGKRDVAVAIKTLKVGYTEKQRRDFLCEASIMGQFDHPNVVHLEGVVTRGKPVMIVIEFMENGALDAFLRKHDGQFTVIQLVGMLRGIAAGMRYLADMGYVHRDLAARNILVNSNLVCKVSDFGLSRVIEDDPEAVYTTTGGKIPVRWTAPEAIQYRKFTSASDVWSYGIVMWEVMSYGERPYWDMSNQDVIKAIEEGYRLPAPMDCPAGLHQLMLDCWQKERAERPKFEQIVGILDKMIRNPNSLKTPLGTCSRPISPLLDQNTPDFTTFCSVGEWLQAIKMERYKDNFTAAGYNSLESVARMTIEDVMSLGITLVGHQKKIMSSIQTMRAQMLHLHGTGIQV
T6 sequence (P08581 25-1390): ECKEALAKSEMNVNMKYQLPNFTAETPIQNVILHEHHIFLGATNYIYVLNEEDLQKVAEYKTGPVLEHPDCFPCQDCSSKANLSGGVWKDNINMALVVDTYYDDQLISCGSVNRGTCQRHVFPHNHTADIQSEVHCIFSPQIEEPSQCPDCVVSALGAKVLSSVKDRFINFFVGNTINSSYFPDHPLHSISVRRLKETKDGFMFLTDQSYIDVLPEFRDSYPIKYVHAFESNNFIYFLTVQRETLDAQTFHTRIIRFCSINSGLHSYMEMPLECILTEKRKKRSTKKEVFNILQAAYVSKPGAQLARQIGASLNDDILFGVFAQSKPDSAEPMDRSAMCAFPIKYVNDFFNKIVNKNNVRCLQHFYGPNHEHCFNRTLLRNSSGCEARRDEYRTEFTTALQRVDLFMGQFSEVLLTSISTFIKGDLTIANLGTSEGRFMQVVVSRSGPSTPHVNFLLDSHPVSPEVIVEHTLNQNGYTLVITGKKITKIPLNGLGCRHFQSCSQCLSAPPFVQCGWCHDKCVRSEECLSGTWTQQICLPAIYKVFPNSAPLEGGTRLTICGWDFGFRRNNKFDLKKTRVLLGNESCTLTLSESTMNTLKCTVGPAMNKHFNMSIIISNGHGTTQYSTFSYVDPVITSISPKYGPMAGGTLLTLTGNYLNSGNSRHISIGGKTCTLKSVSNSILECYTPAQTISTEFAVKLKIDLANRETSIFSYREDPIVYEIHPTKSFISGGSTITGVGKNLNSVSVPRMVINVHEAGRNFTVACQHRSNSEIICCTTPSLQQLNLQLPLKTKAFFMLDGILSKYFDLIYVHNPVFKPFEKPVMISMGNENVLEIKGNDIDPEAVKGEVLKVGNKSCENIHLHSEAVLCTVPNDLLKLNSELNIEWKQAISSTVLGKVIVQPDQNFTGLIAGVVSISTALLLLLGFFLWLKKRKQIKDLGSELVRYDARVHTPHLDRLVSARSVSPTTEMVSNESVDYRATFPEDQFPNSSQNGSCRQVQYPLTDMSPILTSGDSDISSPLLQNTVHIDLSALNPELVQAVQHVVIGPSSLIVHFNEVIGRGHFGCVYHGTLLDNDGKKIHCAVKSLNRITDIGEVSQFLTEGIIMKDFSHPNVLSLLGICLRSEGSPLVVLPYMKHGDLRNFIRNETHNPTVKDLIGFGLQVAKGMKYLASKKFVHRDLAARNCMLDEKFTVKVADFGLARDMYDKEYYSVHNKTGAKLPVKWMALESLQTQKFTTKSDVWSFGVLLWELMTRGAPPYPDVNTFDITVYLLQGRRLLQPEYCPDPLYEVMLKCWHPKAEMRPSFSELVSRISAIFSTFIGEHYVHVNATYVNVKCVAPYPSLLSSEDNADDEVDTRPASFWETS
T4 sequence (Q13554 whole entry): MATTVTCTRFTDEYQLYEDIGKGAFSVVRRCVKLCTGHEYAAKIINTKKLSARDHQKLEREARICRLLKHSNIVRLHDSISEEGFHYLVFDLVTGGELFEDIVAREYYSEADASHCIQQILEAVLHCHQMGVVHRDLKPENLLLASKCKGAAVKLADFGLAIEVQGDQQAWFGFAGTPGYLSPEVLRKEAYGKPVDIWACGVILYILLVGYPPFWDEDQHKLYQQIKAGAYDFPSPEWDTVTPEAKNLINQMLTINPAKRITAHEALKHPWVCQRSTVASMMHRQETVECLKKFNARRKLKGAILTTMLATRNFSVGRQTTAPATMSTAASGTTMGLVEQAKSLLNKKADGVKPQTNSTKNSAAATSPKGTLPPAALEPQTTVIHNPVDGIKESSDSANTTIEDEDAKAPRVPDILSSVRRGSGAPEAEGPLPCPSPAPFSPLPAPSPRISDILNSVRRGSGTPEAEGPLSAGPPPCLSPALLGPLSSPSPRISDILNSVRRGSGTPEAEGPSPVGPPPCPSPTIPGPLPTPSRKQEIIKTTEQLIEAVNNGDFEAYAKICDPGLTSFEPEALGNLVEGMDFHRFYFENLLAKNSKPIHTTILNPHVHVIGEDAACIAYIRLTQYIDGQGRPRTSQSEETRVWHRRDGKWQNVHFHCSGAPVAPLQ

Structure (SMILES) | CATDS (CSNK1G1) | CATDS (NUAK2) | CATDS (PKN2) | CATDS (MELK) | CATDS (AURKA) | CATDS (AGK) | CATDS (DNAJA1) | CATDS (PIK3C2A) | CATDS (CAMK2B) | CATDS (EPHA7) | CATDS (MST1R) | CATDS (CDC42BPB) | CATDS (MAP2K5) | CATDS (DCK) | CATDS (MARK3) | CATDS (MAP2K1) | CATDS (MET) | CATDS (ILK) | CATDS (CSNK1A1) | CATDS (PGK1) | also measured
CCN1CCN(Cc2ccc(Nc3ncc(F)c(-c4cc(F)c5nc(C)n(C(C)C)c5c4)n3)nc2)CC1 [Abemaciclib] | 0 | 0 | 0 | 0 | 0 | 0 | 0 | 0 | 0.1515 | 0 | 0 | 0 | 0 | 0 | 0 | 0 | 0 | 0 | 0 | 0 | CATDS (MAPKAPK2): 0
CCn1c(-c2nonc2N)nc2c(C#CC(C)(C)O)nc(OCCN)cc21 [GSK902056A] | – | – | – | – | – | – | – | – | – | – | – | – | – | – | – | – | – | – | – | – | Relative Intensity 0.3nM (PKN3; Gene Name PKN3): 1.0043; Relative Intensity 1nM (PKN3; Gene Name PKN3): 0.9527; Relative Intensity 3nM (PKN3; Gene Name PKN3): 0.8181; Relative Intensity 10nM (PKN3; Gene Name PKN3): 0.5011; Relative Intensity 30nM (PKN3; Gene Name PKN3): 0.201; Relative Intensity 100nM (PKN3; Gene Name PKN3): 0; Relative Intensity 300nM (PKN3; Gene Name PKN3): 0; Relative Intensity 1000nM (PKN3; Gene Name PKN3): 0; Kd (PKN3; [1]): 10.2 nM; EC50 (PKN3; Gene Name PKN3, doses in nM): 10.2 nM; Kd (PKN3; [2]): 10 nM
CN(C)C/C=C/C(=O)Nc1cc2c(Nc3ccc(F)c(Cl)c3)ncnc2cc1O[C@H]1CCOC1 [Afatinib] | – | 0 | 0 | – | 0 | 0 | 0 | 0 | 0 | 0 | – | – | – | 0 | – | – | 0 | – | – | 0 | –
CCn1c(-c2nonc2N)nc2c(C#CC(C)(C)O)nc(OCCNC)cc21 [GSK949675A] | – | – | – | – | – | – | – | – | – | – | – | – | – | – | – | – | – | – | – | – | Relative Intensity 0.3nM (PKN3; Gene Name PKN3): 1.302; Relative Intensity 1nM (PKN3; Gene Name PKN3): 1.271; Relative Intensity 3nM (PKN3; Gene Name PKN3): 1.02; Relative Intensity 10nM (PKN3; Gene Name PKN3): 1.139; Relative Intensity 30nM (PKN3; Gene Name PKN3): 0.7655; Relative Intensity 100nM (PKN3; Gene Name PKN3): 0.7191; Relative Intensity 300nM (PKN3; Gene Name PKN3): 0; Relative Intensity 1000nM (PKN3; Gene Name PKN3): 0; Kd (PKN3; [1]): 89.8 nM; EC50 (PKN3; Gene Name PKN3, doses in nM): 89.8 nM; Kd (PKN3; [2]): 90 nM
NCc1ccc(-c2nc(-c3ccncc3)c(-c3ccc(Cl)c(O)c3)[nH]2)cc1 [SB-476429-A] | – | – | – | – | – | – | – | – | – | – | – | – | – | – | – | – | – | – | – | – | Relative Intensity 0.3nM (PKN3; Gene Name PKN3): 1.299; Relative Intensity 1nM (PKN3; Gene Name PKN3): 1.281; Relative Intensity 3nM (PKN3; Gene Name PKN3): 1.311; Relative Intensity 10nM (PKN3; Gene Name PKN3): 1.076; Relative Intensity 30nM (PKN3; Gene Name PKN3): 0.6326; Relative Intensity 100nM (PKN3; Gene Name PKN3): 0.3718; Relative Intensity 300nM (PKN3; Gene Name PKN3): 0; Relative Intensity 1000nM (PKN3; Gene Name PKN3): 0; Kd (PKN3; [1]): 38.4 nM; EC50 (PKN3; Gene Name PKN3, doses in nM): 38.4 nM; Kd (PKN3; [2]): 38 nM
CCc1cc2c(cc1N1CCC(N3CCOCC3)CC1)C(C)(C)c1[nH]c3cc(C#N)ccc3c1C2=O [Alectinib] | 0 | 0 | 0 | 0 | 0 | 0 | 0 | 0 | 0 | 0 | 0 | 0 | 0 | 0 | 0 | 0 | 0 | 0 | 0 | 0 | CATDS (MAPKAPK2): 0
Nc1ncnc2[nH]c(-c3ccccc3)nc12 [AH5015_KCGS] | 0 | 0 | 0 | 0 | 0 | 0 | 0 | 0 | 0 | 0 | 0 | 0 | 0 | 0 | 0 | 0 | 0 | 0 | 0 | 0 | CATDS (MAPKAPK2): 0
N#CC1(c2ccc(NC(=O)c3cccnc3NCc3ccncc3)cc2)CCCC1 [Apatinib] | 0 | 0 | 0 | 0 | 0 | 0 | 0 | 0 | 0 | 0 | 0 | 0 | 0 | 0 | 0 | 0 | 0 | 0 | 0 | 0 | CATDS (MAPKAPK2): 0
